Assay results as given in US20110142842A1, “POLYPEPTIDES” (Medinnova AS, priority 2007, published 2011).

Key:
[1] = tested on: autologous responder cells (monocyte-depleted PBMC) from HLA-A*0201-negative donors; experiment: Induction of pentamer positive CD8+ T cells by peptide-pulsed HLA-A*0201-transfected moDC (Example 8); type: cell-based, human
Method: MoDC transfected with HLA-A*0201 mRNA were harvested 18 hours after transfection and resuspended in 1-2 ml of serum-free DC-medium containing 50 μg/ml peptide, such as MART-1 or peptide #19. The cells were incubated at 37° C., 5% CO2 for 4 hours, then washed once in serum-free RPMI.
Stimulator and responder cells were seeded at a stimulator to responder (S:R) ratio of 1:10, with 3.0×10^6 responders per well in serum-free DC medium containing 10 ng/ml IL-7 (PeproTech EC Ltd.), 50 pg/ml IL-12 (PeproTech EC Ltd.), and PPD at 1 μg/ml.
On day 12 the responder cells were harvested and analyzed for the presence of pentamer positive cells. The cells were either sorted or restimulated.
Restimulation was done with autologous EBV-LCL transfected with HLA-A*0201 mRNA 12-24 hours prior to stimulation, harvested and resuspended in 1-2 ml of serum-free X-Vivo 20 (Cambrex) containing the same peptide as added on day 0 at 20 μg/ml, and incubated for 4 hours at 37° C., 5% CO2. Following incubation, the EBV-LCL were washed once in serum-free RPMI.
From day 12 of co-culture with stimulator cells, the responders were harvested, counted and analyzed for the presence of pentamer positive cells weekly. The responder cells were either restimulated, as described above, or the pentamer positive cells were sorted and expanded as described below.
Monocyte-derived dendritic cells (moDC) from HLA-A*0201-negative donors were transfected with HLA-A*0201 mRNA after maturation. 18-24 hours post-transfection the cells were pulsed with the peptides indicated in Table 2 for four hours, before co-culturing them with autologous responder cells (monocyte-depleted PBMC). On day 12 and day 19 and in some cases at day 26 of co-culture, the cells were harvested, stained with relevant peptide-MHC-pentamer and analyzed by flow cytometry. The percentage of pentamer positive cells was calculated by dividing the number of pentamer positive cells by the number of CD8+ cells. On day 12 and day 19, the cells were restimulated with autologous EBV-cells that were transfected with HLA-A*0201 mRNA and loaded for four hours with the relevant peptides indicated in Table 2.

HLA-A*0201 [2] = molecular target: HLA-A*0201 (Homo sapiens, UniProt P04439, D140Y/D185E/D98H/E176V/E277Q/G131W/G231S/I119V/I121R/I166T/I218V/L300P/L318F/N151K/N90K/P208A/P217A/Q86G/Q94H/R138H/R169H/T345S); experiment: REVEAL MHC molecule binding assay (ProImmune); conditions: level of binding relative to pass/fail control binder designated 100%
HLA-A*0201 [3] = molecular target: HLA-A*0201 (Homo sapiens, UniProt P04439, /I218V/L300P/L318F/N151K/N90K/P208A/P217A/Q86G/Q94H/R138H/R169H/T345S); experiment: REVEAL MHC molecule binding assay (ProImmune); conditions: value of the unmodified old peptide listed beside the modified peptide ID

SVDPRIANV [82] (homo sapiens) [Peptide 82, from MPO]
Day 12 % pent+/CD8+ ([1]; day 12 of co-culture): 0.04%
Day 19 % pent+/CD8+ ([1]; day 19 of co-culture, after restimulation): 0.19%
Day 12 Donors ([1]; donors with positive response / donors tested, day 12): 1/2
Day 19 Donors ([1]; donors with positive response / donors tested, day 19): 1/2
% Pass/fail control (HLA-A*0201 [2]): 295.4%
% Pass/fail (Old Peptide) (HLA-A*0201 [3]): 295.4%
